# From US20230076527A1, “TREATMENT OF PAROXYSMAL NOCTURNAL HEMOGLOBINURIA” (Apellis Pharmaceuticals, Inc., priority 2020, published 2023)
# Key:
# Assay type in all cases: in vivo, human
# patients with PNH [1] = test: PEGASUS 48-week efficacy results (open-label period)
# Experimental: Day 1 to Week 16 was defined as the Randomized Controlled Period, over which endpoints were assessed. After completion of the Randomized Controlled Period (the end of Week 16), all subjects continue into a 32-week Open-Label Study Drug Period in which all subjects receive twice-weekly doses of Study Drug (1,080 mg). During this period, subjects return to the clinical site on Weeks 17, 18, 20, 22 and 24 and every 4 weeks, thereafter, until Week 48 for efficacy and safety assessments.
# patients with PNH [2] = test: PEGASUS quality of life assessments (LASA, EORTC QLQ-C30)
# Experimental: QoL assessments were Linear Analog Scale Assessment (LASA) and the European Organisation for Research and Treatment of Cancer Quality of Life Questionnaire-Core 30 Scale (EORTC QLQ-C30) scores. Change from baseline (CFB) to week 16 was analyzed using a mixed model for repeated measures. The LASA consists of 3 sections asking respondents to rate their perceived level of functioning and contains specific domains for activity level, ability to carry out daily activities, and overall QoL. Each section of the LASA is scored from low of 0 to high of 100 and asks patients to rate different aspects of their life over the past week; section 1 asks patients to rate their energy level, section 2 their ability to do daily activities, section 3 their overall quality of life. Scores for the 3 individual components of the scale and the combined score were included in the analysis. The EORTC contains 30 questions comprising 5 functional scale scores and individual items; it asks patients to answer 28 questions on a scale of 1 (“not at all”) to 4 (“very much”) that generally focus on the past week of their life. An additional 2 questions are rated on a scale of 1 (“very poor”) to 7 (“excellent”) for overall health and quality of life over the past week.
# [3] = system: patients with PNH previously treated with eculizumab; test: Matching-adjusted indirect comparison of pegcetacoplan (PEGASUS) versus ravulizumab (302 study); settings: PEGASUS Week 16 vs 302 study Week 26, after matching
# Description: Both studies share similar eligibility criteria. However, PEGASUS also required patients to have hemoglobin <10.5 g/dL and absolute reticulocyte count >1.0x the upper limit of normal; these criteria were not applicable in the 302 study. To adjust for cross-study differences in baseline characteristics, propensity score weighting was utilized to balance baseline demographic and clinical characteristics. Outcomes assessed included: transfusion avoidance, total number of units of packed red blood cells (PRBCs) transfused, hemoglobin stabilization, and change in Functional Assessment of Chronic Illness Therapy (FACIT)-Fatigue score. Outcomes were assessed from PEGASUS at Week 16 and from the 302 study at Week 26. Unadjusted mean and least squares mean change in FACIT-Fatigue score were compared for PEGASUS and the 302 study, respectively. Weighted Wald tests and 95% confidence intervals (CIs) were computed for comparisons of categorical and continuous outcomes (i.e., chi square and z tests, respectively).
# PNH Type II + III RBCs = test: PEGASUS pharmacodynamics: C3 loading and clone size of PNH red blood cells; settings: week 16 versus baseline
# Description: FIGS. 9B and 9C includes descriptive analysis of observed values, based only on those subjects who had both baseline and week 16 data.
# [4] = change from baseline at week 16, ITT
# [5] = change from baseline at week 16, ITT, listed as Pegcetacoplan
# [6] = week 16, ITT, negative = improvement
substance,measurement,setting,value
"Poly(oxy-1,2-ethanediyl), α-hydro-ω-hydroxy-, 15,15ʹ -diester with N-acetyl-L-isoleucyl-L-cysteinyl-L-valyl-1-methyl-L-tryptophyl-L-glutaminyl-L-α-aspartyl-L-tryptophylglycyl-L-alanyl-L-histidyl-L-arginyl-L-cysteinyl-L-threonyl-2-[2-(2-aminoethoxy)ethoxy]acetyl-N^6-carboxy-L-lysinamide cyclic (2-->12)-(disulfide) [pegcetacoplan]","hemoglobin, mean improvement from baseline",patients with PNH [1]; Week 48,2.7 g/dL
same,patients who remained transfusion free,patients with PNH [1]; throughout the 48-week study,73%
same,"hemoglobin, mean increase from baseline as stated in Example 3",patients with PNH [1]; week 16,2.7 g/dL
same,"Appetite loss, Difference (95% CI) in LS mean, pegcetacoplan vs eculizumab",patients with PNH [2]; [4],"-8.0 (-23.2, 7.3)"
same,"Cognitive functioning, Difference (95% CI) in LS mean, pegcetacoplan vs eculizumab",patients with PNH [2]; [4],"9.6 (-4.5, 23.6)"
same,"Constipation, Difference (95% CI) in LS mean, pegcetacoplan vs eculizumab",patients with PNH [2]; [4],"1.8 (-15.7, 19.3)"
same,"Diarrhea, Difference (95% CI) in LS mean, pegcetacoplan vs eculizumab",patients with PNH [2]; [4],"-1.4 (-19.3, 16.5)"
same,"Dyspnea, Difference (95% CI) in LS mean, pegcetacoplan vs eculizumab",patients with PNH [2]; [4],-14.6
same,"Emotional functioning, Difference (95% CI) in LS mean, pegcetacoplan vs eculizumab",patients with PNH [2]; [4],"4.1 (-11.6, 19.8)"
same,"Fatigue symptom scale, Difference (95% CI) in LS mean, pegcetacoplan vs eculizumab",patients with PNH [2]; [4],-20.7
same,"Financial difficulties, Difference (95% CI) in LS mean, pegcetacoplan vs eculizumab",patients with PNH [2]; [4],"-7.4 (-21.8, 7.0)"
same,"Global Health Status/QoL, Difference (95% CI) in LS mean, pegcetacoplan vs eculizumab",patients with PNH [2]; [4],"18.6 (0.1, 37.1)"
same,"Insomnia, Difference (95% CI) in LS mean, pegcetacoplan vs eculizumab",patients with PNH [2]; [4],"0.3 (-15.7, 16.3)"
same,"Nausea and vomiting, Difference (95% CI) in LS mean, pegcetacoplan vs eculizumab",patients with PNH [2]; [4],"-0.0 (-8.4, 8.4)"
same,"Pain, Difference (95% CI) in LS mean, pegcetacoplan vs eculizumab",patients with PNH [2]; [4],"-2.8 (-20.4, 14.9)"
same,"Physical functioning, Difference (95% CI) in LS mean, pegcetacoplan vs eculizumab",patients with PNH [2]; [4],"12.9 (4.9, 20.9)"
same,"Role functioning, Difference (95% CI) in LS mean, pegcetacoplan vs eculizumab",patients with PNH [2]; [4],"24.4 (8.8, 40.0)"
same,"Social functioning, Difference (95% CI) in LS mean, pegcetacoplan vs eculizumab",patients with PNH [2]; [4],"11.3 (-2.4, 24.9)"
same,"LASA score, Difference (95% CI) in LS mean, pegcetacoplan vs eculizumab","patients with PNH [2]; change from baseline at week 16, ITT, censored for transfusion",59.10
same,"LASA score, Difference (95% CI) in LS mean, pegcetacoplan vs eculizumab","patients with PNH [2]; change from baseline at week 16, ITT, censored for transfusion, listed as Pegcetacoplan","59.1 (16.9, 101.3)"
same,"Dyspnea, Difference (95% CI) in LS mean, pegcetacoplan vs eculizumab",patients with PNH [2]; [5],"-14.6 (-29.9, 0.8)"
same,"Fatigue symptom scale, Difference (95% CI) in LS mean, pegcetacoplan vs eculizumab",patients with PNH [2]; [5],"-20.7 (-35.3, -6.2)"
same,"EORTC QLQ-C30 Cognitive functioning, LS mean (SE) change from baseline","patients with PNH [2]; week 16, ITT",5.8 (3.3)
same,"EORTC QLQ-C30 Emotional functioning, LS mean (SE) change from baseline","patients with PNH [2]; week 16, ITT",8.0 (3.4)
same,"EORTC QLQ-C30 Global Health Status/QoL, LS mean (SE) change from baseline","patients with PNH [2]; week 16, ITT",15.9 (3.6)
same,"EORTC QLQ-C30 Physical functioning, LS mean (SE) change from baseline","patients with PNH [2]; week 16, ITT",16.9 (2.1)
same,"EORTC QLQ-C30 Role functioning, LS mean (SE) change from baseline","patients with PNH [2]; week 16, ITT",15.4 (3.9)
same,"EORTC QLQ-C30 Social functioning, LS mean (SE) change from baseline","patients with PNH [2]; week 16, ITT",15.1 (2.9)
same,"LASA score, LS mean (SE) change from baseline","patients with PNH [2]; week 16, ITT, censored for transfusion",49.4 (10.2)
same,"EORTC QLQ-C30 Appetite loss, LS mean (SE) change from baseline",patients with PNH [2]; [6],-3.8 (3.4)
same,"EORTC QLQ-C30 Constipation, LS mean (SE) change from baseline",patients with PNH [2]; [6],3.0 (3.2)
same,"EORTC QLQ-C30 Diarrhea, LS mean (SE) change from baseline",patients with PNH [2]; [6],0.3 (3.7)
same,"EORTC QLQ-C30 Dyspnea, LS mean (SE) change from baseline",patients with PNH [2]; [6],-20.1 (3.5)
same,"EORTC QLQ-C30 Fatigue symptom scale, LS mean (SE) change from baseline",patients with PNH [2]; [6],-22.9 (3.3)
same,"EORTC QLQ-C30 Financial difficulties, LS mean (SE) change from baseline",patients with PNH [2]; [6],-6.8 (3.9)
same,"EORTC QLQ-C30 Insomnia, LS mean (SE) change from baseline",patients with PNH [2]; [6],-9.2 (4.0)
same,"EORTC QLQ-C30 Nausea and vomiting, LS mean (SE) change from baseline",patients with PNH [2]; [6],-0.3 (1.6)
same,"EORTC QLQ-C30 Pain, LS mean (SE) change from baseline",patients with PNH [2]; [6],-0.7 (4.3)
same,"comparative effectiveness versus ravulizumab (MAIC, anchored on eculizumab)",[3],"improvement in transfusion avoidance, hemoglobin stabilization, and fatigue, and a reduction in the total number of units of PRBCs transfused"
same,C3 loading on Type III RBCs,PNH Type II + III RBCs,decreased
same,PNH clone size (Type II + III),PNH Type II + III RBCs,increased
